Test results as given in US8343475B2, “Small cationic antimicrobial peptides” (priority 2006, dated 2013).
Converted amounts (≈) assume the structure as drawn. Residues, ends and D or L forms follow the SMILES beside them.

Experiments:
[1] = test system: CXCL1 (Gro-α) release by human PBMC; assay: Chemokine induction in PBMC (capture ELISA); format: cell-based; conditions: background (196) subtracted
How it was run: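 Human PBMC from healthy donors' heparinised blood (Ficoll), 7.5×10^5 cells treated with 20 or 100 μg/ml peptide for 24 h at 37° C, 5% CO2. Cell-free supernatants assayed for CXCL1 by capture ELISA.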

[2] = test system: ESBL E. coli clinical strain 64771; format: cell-based; conditions: ESBL clinical strain 64771
Experimental: (§1) Minimal inhibitory concentration (MIC) determination. The MIC of the peptides were measured using a modified broth microdilution method in Mueller Hinton (MH) medium (Wu M, Hancock R E W. 1999. Interaction of the cyclic antimicrobial cationic peptide bactenecin with the outer and cytoplasmic membrane. J Biol Chem 274, 29-35). Briefly, the peptides were dissolved and stored in glass vials. The assay was performed in sterile 96-well polypropylene microtitre plates were used. Serial dilutions of the peptides to be assayed were performed in 0.01% acetic acid (Fisher) containing 0.2% bovine serum albumin (Boehringer Mannheim GmbH) at 10× the desired final concentration. Ten microlitres of the 10× peptides were added to each well of a 96-well polypropylene plate containing 90 μl of MH media per well. Bacteria were added to the plate from an overnight culture at 2-7×10^5 colony forming units/ml and incubated over night at 37° C. The MIC was taken as the concentration at which no growth was observed.
(§2) The selected peptides were synthesized and assayed against several major antibiotic-resistant pathogens. Initially, the peptides were screened against the laboratory strain of P. aeruginosa PAO1 to compare the results with the training data. […] The antibacterial activity in the form of minimal inhibitory concentration (MIC) of the other studied peptides was assessed in greater depth (Table 9) against many highly antibiotic resistanct pathogens.

[3] = test system: ESBL Klebsiella pneumonia clinical strain 63575; format: cell-based
Experimental: as §1, §2

[4] = test system: multidrug resistant Pseudomonas maltophilia ATCC13637; format: cell-based
Experimental: as §1, §2

[5] = test system: clinical isolates of MRSA; format: cell-based, Staphylococcus aureus
Experimental: as §1
(§3) All peptides derived from the 1st, 2nd, and 3rd quartiles were further evaluated for their antibacterial activities against several highly antibitoic resistant pathogens (Table 3). These included clinical isolates of MRSA, ESBL E. cloacae, and multidrug resistant Pseudomonas strains including Brazilian clinical isolates of P. aeruginosa that are resistant to meropenem, ceftazidime, piperacillin/tazobactam, ciprofloxacin, cefepime and polymyxin B, and the Liverpool Epidemic Strains. […] Such results characterize the developed peptides as excellent antibiotic candidates, providing new means for treating most dangerous and severe forms of human infections.

[6] = test system: Liverpool Epidemic Strains; format: cell-based, Pseudomonas aeruginosa
Experimental: as §1, §3

[7] = test system: multidrug resistant Brazilian clinical isolates of P. aeruginosa; format: cell-based, Pseudomonas aeruginosa
Experimental: as §1, §3

[8] = test system: MCP-3 release by human PBMC; assay: Chemokine induction in PBMC (capture ELISA); format: cell-based; conditions: background (6) subtracted
How it was run: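 Human PBMC from healthy donors (Ficoll-isolated), 7.5×10^5 cells at 0.75–1×10^6 cells/ml, treated with peptides at 20 or 100 μg/ml for 24 h at 37° C, 5% CO2. MCP-3 in cell-free supernatants measured by capture ELISA.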

[9] = test system: Enterococcus faecalis ATCC29212; format: cell-based; conditions: ATCC29212
How it was run: (§4)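 First, peptides were serially diluted at ten times final strength in 0.01% acetic acid with 0.2% BSA. These were then added to Mueller Hinton medium and inoculated with overnight-grown organisms at 2-7×10^5 CFU/ml. After overnight incubation at 37° C, the MIC was scored as the concentration without growth.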

[10] = test system: Staphylococcus aureus ATCC25923; format: cell-based; conditions: ATCC25923
How it was run: as §4

[11] = test system: MCP-1 release by human PBMC; assay: Chemokine induction in PBMC (capture ELISA); format: cell-based; conditions: background (204) subtracted
How it was run: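 Heparinized blood from healthy volunteers; Ficoll-isolated human PBMC (7.5×10^5) treated with peptides at 20 or 100 μg/ml for 24 hours at 37° C, 5% CO2. Cell-free supernatants assayed for MCP-1 by capture ELISA.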

ESBL E. cloacae = format: cell-based, Enterobacter cloacae
Experimental: as §1, §3

[12] = test system: clinical isolate of Staphylococcus epidermidis; format: cell-based; conditions: clinical isolate of
How it was run: as §4

Escherichia coli UB1005 = format: cell-based; conditions: UB1005
How it was run: as §4

[13] = test system: wild-type Salmonella enterica ssp. typhimurium; format: cell-based
How it was run: as §4

[14] = test system: lab isolate of Candida albicans; format: cell-based; conditions: lab isolate of
How it was run: as §4

[15] = test system: Pseudomonas aeruginosa PAO1 strain H103; format: cell-based; conditions: PAO1
How it was run: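 Modified broth microdilution MIC in Mueller Hinton medium, peptides diluted in 0.01% acetic acid/0.2% BSA, polypropylene plates. Inoculum 2-7×10^5 CFU/ml, overnight at 37 °C; MIC is the lowest concentration with no visible growth.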

SMILES	Chemokine induction Gro-α ([1]; 20 μg/ml peptide) [pg/mL]	Chemokine induction Gro-α ([1]; 100 μg/ml peptide) [pg/mL]	MIC [2] [µM]	MIC [3] [µM]	MIC [4] [µM]	MIC [5] [µM]	MIC [6] [µM]	MIC [7] [µM]	Chemokine induction MCP-3 ([8]; 20 μg/ml peptide) [pg/mL]	Chemokine induction MCP-3 ([8]; 100 μg/ml peptide) [pg/mL]	MIC [9] [µM]	MIC [10] [µM]	Chemokine induction MCP-1 ([11]; 20 μg/ml peptide) [pg/mL]	Chemokine induction MCP-1 ([11]; 100 μg/ml peptide) [pg/mL]	MIC (ESBL E. cloacae) [µM]	MIC against P. aeruginosa PAO1 [15] [µM]	other results
CC(C)C[C@H](NC(=O)[C@H](Cc1c[nH]c2ccccc12)NC(=O)[C@H](Cc1c[nH]c2ccccc12)NC(=O)[C@H](CCCCN)NC(=O)[C@H](Cc1c[nH]c2ccccc12)NC(=O)[C@H](CCCNC(=N)N)NC(=O)[C@H](CCCNC(=N)N)NC(=O)[C@H](Cc1c[nH]c2ccccc12)NC(=O)[C@@H](N)CCCNC(=N)N)C(N)=O [HHC9, RWRRWKWWL] (H-RWRRWKWWL-NH2; N-terminus assumed)	-25	5	3 (≈ 4.42 µg/mL)	11 (≈ 16.2 µg/mL)	0.7 (≈ 1.03 µg/mL)	3 (≈ 4.42 µg/mL)	0.3 (≈ 0.442 µg/mL)	12 (≈ 17.7 µg/mL)	-1	48	23 (≈ 33.9 µg/mL)	3 (≈ 4.42 µg/mL)	9	4493	6 (≈ 8.83 µg/mL)	–	–
CC[C@H](C)[C@H](NC(=O)[C@H](CCCCN)NC(=O)[C@H](Cc1c[nH]c2ccccc12)NC(=O)[C@H](Cc1c[nH]c2ccccc12)NC(=O)[C@H](CCCNC(=N)N)NC(=O)[C@@H](N)Cc1c[nH]c2ccccc12)C(=O)N[C@@H](Cc1c[nH]c2ccccc12)C(=O)N[C@@H](CCCCN)C(=O)N[C@@H](CCCNC(=N)N)C(N)=O [HHC20, WRWWKIWKR] (H-WRWWKIWKR-NH2; N-terminus assumed)	169	33	6 (≈ 8.66 µg/mL)	24 (≈ 34.7 µg/mL)	0.8 (≈ 1.16 µg/mL)	3 (≈ 4.33 µg/mL)	1.5 (≈ 2.17 µg/mL)	24 (≈ 34.7 µg/mL)	8	12	24 (≈ 34.7 µg/mL)	3 (≈ 4.33 µg/mL)	290	974	12 (≈ 17.3 µg/mL)	–	–
CC[C@H](C)[C@H](NC(=O)[C@H](CCCNC(=N)N)NC(=O)[C@H](C)NC(=O)[C@H](CC(C)C)NC(=O)[C@@H](N)CCCNC(=N)N)C(=O)N[C@H](C(=O)N[C@H](C(=O)N[C@H](C(=O)N[C@@H](CCCNC(=N)N)C(=O)N[C@H](C(=O)N[C@@H](C)C(=O)N[C@@H](CCCNC(=N)N)C(N)=O)C(C)C)[C@@H](C)CC)C(C)C)C(C)C [Bac2A, RLARIVVIRVAR-NH2, reference compound] (H-RLARIVVIRVAR-NH2; N-terminus assumed)	9	8	24 (≈ 34.1 µg/mL)	192 (≈ 273 µg/mL)	3 (≈ 4.26 µg/mL)	24 (≈ 34.1 µg/mL)	12 (≈ 17 µg/mL)	–	2	2	12 (≈ 17 µg/mL)	24 (≈ 34.1 µg/mL)	316	442	24 (≈ 34.1 µg/mL)	–	MIC S. epi. [12]: 4 µg/mL (≈ 2.82 µM); MIC E. coli (Escherichia coli UB1005): 17 µg/mL (≈ 12 µM); MIC E. faecalis [9]: 17 µg/mL (≈ 12 µM); MIC S. aureus [10]: 17 µg/mL (≈ 12 µM); MIC S. typhi [13]: 34 µg/mL (≈ 23.9 µM); MIC C. albicans [14]: 9 µg/mL (≈ 6.33 µM); MIC P. aerug [15]: 50 µg/mL (≈ 35.2 µM)
CC[C@H](C)[C@H](NC(=O)[C@H](CCCNC(=N)N)NC(=O)[C@H](CCCCN)NC(=O)[C@@H](NC(=O)[C@H](Cc1c[nH]c2ccccc12)NC(=O)[C@H](Cc1c[nH]c2ccccc12)NC(=O)[C@H](Cc1c[nH]c2ccccc12)NC(=O)[C@H](CCCNC(=N)N)NC(=O)[C@@H](N)CC(C)C)[C@@H](C)CC)C(N)=O [HHC57, LRWWWIKRI] (H-LRWWWIKRI-NH2; N-terminus assumed)	21	18	13 (≈ 17.6 µg/mL)	50 (≈ 67.8 µg/mL)	3 (≈ 4.07 µg/mL)	63 (≈ 85.4 µg/mL)	6 (≈ 8.13 µg/mL)	–	0	9	13 (≈ 17.6 µg/mL)	6 (≈ 8.13 µg/mL)	146	1364	50 (≈ 67.8 µg/mL)	4 to 12	–
CC[C@H](C)[C@H](NC(=O)[C@H](Cc1ccccc1)NC(=O)[C@H](CCCCN)NC(=O)[C@H](Cc1ccccc1)NC(=O)[C@H](CCCNC(=N)N)NC(=O)[C@@H](N)CCCNC(=N)N)C(=O)N[C@@H](CCCNC(=N)N)C(=O)N[C@@H](Cc1c[nH]c2ccccc12)C(=O)N[C@@H](Cc1c[nH]c2ccccc12)C(N)=O [HHC100, RRFKFIRWW] (H-RRFKFIRWW-NH2; N-terminus assumed)	-18	-43	12 (≈ 16.7 µg/mL)	49 (≈ 68.3 µg/mL)	0.8 (≈ 1.11 µg/mL)	6 (≈ 8.36 µg/mL)	3 (≈ 4.18 µg/mL)	–	-1	0	12 (≈ 16.7 µg/mL)	6 (≈ 8.36 µg/mL)	179	197	12 (≈ 16.7 µg/mL)	4 to 12	–
CC[C@H](C)[C@H](NC(=O)[C@H](Cc1c[nH]c2ccccc12)NC(=O)[C@@H](NC(=O)[C@H](Cc1c[nH]c2ccccc12)NC(=O)[C@H](CCCNC(=N)N)NC(=O)[C@H](CCCCN)NC(=O)[C@@H](N)CCCCN)C(C)C)C(=O)N[C@@H](CCCNC(=N)N)C(=O)N[C@@H](Cc1ccc(O)cc1)C(N)=O [HHC69, KKRWVWIRY] (H-KKRWVWIRY-NH2; N-terminus assumed)	17	-3	13 (≈ 17.3 µg/mL)	51 (≈ 68 µg/mL)	1.6 (≈ 2.13 µg/mL)	13 (≈ 17.3 µg/mL)	3 (≈ 4 µg/mL)	–	1	0	25 (≈ 33.3 µg/mL)	13 (≈ 17.3 µg/mL)	440	245	25 (≈ 33.3 µg/mL)	4 to 12	–
